Experimental data as given in ChEMBL document CHEMBL3351442, “Synthesis and antiproliferative evaluation of 2-hydroxylated (E)-stilbenes” (Bioorg Med Chem Lett, 2014).

Legend:
Format in all cases: functional, cell-based
[1] = Antiproliferative activity against human MDA468 cells by MTT assay; conditions: MDA-MB-468
MGC-803 = assay: Antiproliferative activity against human MGC803 cells by MTT assay
HT-29 = assay: Antiproliferative activity against human HT-29 cells by MTT assay
[2] = Antiproliferative activity against human COLO205 cells by MTT assay; conditions: COLO 205

IC50 (MGC-803) [µM] | IC50 (HT-29) [µM] | Compound | IC50 [1] [µM] | IC50 [2] [µM]
1.1 | – | COc1cccc(/C=C\c2cc(OC)c(OC)c(OC)c2)c1O | 2.6 | –
6.3 | 26.2 | COc1cc(/C=C/c2ccccc2O)cc(OC)c1 | 12.6 | –
– | 14.4 | Oc1ccccc1/C=C/c1ccc(Br)cc1 | 7.4 | 21.1
– | 26.7 | Oc1ccc(/C=C/c2cc(Br)ccc2O)cc1 | 3.5 | –
3.5 | 10 | COc1ccc(/C=C/c2cc(Br)ccc2O)c(OC)c1 | 3.7 | –
5 | 13.3 | Cc1cc(C)cc(/C=C/c2cc(Br)ccc2O)c1 | 7.2 | –
3.3 | 9.5 | COc1cc(/C=C/c2cc(Br)ccc2O)cc(OC)c1 | 6.1 | 16.4
4.5 | 18.5 | COc1cc(/C=C/c2cc(Br)ccc2O)cc(OC)c1OC | 14.2 | –
10.6 | 12.6 | COc1cc(/C=C/c2cc([N+](=O)[O-])ccc2O)cc(OC)c1 | – | –
14.7 | – | COc1cc(/C=C/c2cc([N+](=O)[O-])ccc2O)cc(OC)c1OC | – | –

The next lines start with the compound.

Compound | IC50 (MGC-803) [µM] | IC50 (HT-29) [µM] | IC50 [1] [µM] | IC50 [2] [µM]
Oc1ccccc1/C=C/c1ccccc1 | – | – | 19.3 | –
Cc1ccc(/C=C/c2ccccc2O)cc1 | – | 22.9 | 21.9 | –
Oc1ccc(/C=C/c2ccccc2O)cc1 | – | 33.5 | – | –
N#Cc1ccc(/C=C/c2ccccc2O)cc1 | 3.1 | – | – | –
Oc1cc(O)cc(/C=C/c2ccccc2O)c1 | – | 26.2 | – | –
COc1cccc(/C=C/c2ccc(O)cc2)c1O | – | – | 6.9 | –
COc1ccc(/C=C/c2cccc(OC)c2O)cc1 | – | – | – | 20.2
COc1ccc(/C=C/c2cccc(OC)c2O)c(OC)c1 | – | – | 5.1 | –
COc1ccc(/C=C/c2cc(OC)c(OC)c(OC)c2)c(O)c1 | 0.035 | 9.7 | 5.3 | 5.3
Oc1ccc(/C=C/c2cc(O)cc(O)c2)cc1 [RESVERATROL] | 42 | 87.2 | 45.2 | 23.5
